Active and inactive are the calls of the source. The calls are words filed in the database; no cut-off is given here.
Legend:
Mus musculus [1] = test: Antidepressant activity in albino Mus musculus (mouse) assessed as reduction in immobility time at 50 mg/kg, ip administered 30 min prior to testing by forced-swim test relative to control; format: functional, organism-based; set-up: dose 50 mg/kg
Mus musculus [2] = test: Stimulation of central nervous system in albino Mus musculus (mouse) assessed as increase in rearing behaviour at 100 mg/kg, ip administered 30 min prior to testing by open-feild test relative to control; format: ADME, organism-based; set-up: dose 100 mg/kg, route intraperitoneal; conditions: in vivo, 0.5 h
Mus musculus [3] = test: Anxiolytic activity in albino Mus musculus (mouse) assessed as increase in time spent on open arm at 100 mg/kg, ip administered 30 min prior to testing by elevated-plus maze test relative to control; format: functional, organism-based; set-up: dose 100 mg/kg
Mus musculus [4] = test: Anxiolytic activity in albino Mus musculus (mouse) assessed as decrease in rearing behaviour at 50 mg/kg, ip administered 30 min prior to testing by open-field test relative to control; format: functional, organism-based; set-up: dose 50 mg/kg
Mus musculus [5] = test: Stimulation of central nervous system in albino Mus musculus (mouse) assessed as increase in number of lines crossed at 100 mg/kg, ip administered 30 min prior to testing by open-feild test relative to control; format: ADME, organism-based; set-up: dose 100 mg/kg, route intraperitoneal; conditions: in vivo, 0.5 h
Mus musculus [6] = test: Anxiolytic activity in albino Mus musculus (mouse) assessed as increase in number of open arm enteries at 100 mg/kg, ip administered 30 min prior to testing by elevated-plus maze test relative to control; format: functional, organism-based; set-up: dose 100 mg/kg
Mus musculus [7] = test: Anxiolytic activity in albino Mus musculus (mouse) assessed as increase in time spent on open arm at 50 mg/kg, ip administered 30 min prior to testing by elevated-plus maze test relative to control; format: functional, organism-based; set-up: dose 50 mg/kg
Mus musculus [8] = test: Anxiolytic activity in albino Mus musculus (mouse) assessed as increase in number of open arm enteries at 50 mg/kg, ip administered 30 min prior to testing by elevated-plus maze test relative to control; format: functional, organism-based; set-up: dose 50 mg/kg
Mus musculus [9] = test: Antidepressant activity in albino Mus musculus (mouse) assessed as reduction in immobility time at 15 mg/kg, ip administered 30 min prior to testing by forced-swim test relative to control; format: functional, organism-based; set-up: dose 15 mg/kg
Mus musculus [10] = test: Stimulation of central nervous system in albino Mus musculus (mouse) assessed as increase in rearing behaviour at 50 mg/kg, ip administered 30 min prior to testing by open-feild test relative to control; format: ADME, organism-based; set-up: dose 50 mg/kg, route intraperitoneal; conditions: in vivo, 0.5 h
Mus musculus [11] = test: Stimulation of central nervous system in albino Mus musculus (mouse) assessed as increase in number of lines crossed at 50 mg/kg, ip administered 30 min prior to testing by open-feild test relative to control; format: ADME, organism-based; set-up: dose 50 mg/kg, route intraperitoneal; conditions: in vivo, 0.5 h
Mus musculus [12] = test: Antidepressant activity in albino Mus musculus (mouse) assessed as reduction in immobility time at 100 mg/kg, ip administered 30 min prior to testing by forced-swim test relative to control; format: functional, organism-based; set-up: dose 100 mg/kg
Mus musculus [13] = test: Anxiolytic activity in albino Mus musculus (mouse) assessed as decrease in rearing behaviour at 100 mg/kg, ip administered 30 min prior to testing by open-field test relative to control; format: functional, organism-based; set-up: dose 100 mg/kg

Row | SMILES | Activity (Mus musculus [1]) | Activity (Mus musculus [2]) | Activity (Mus musculus [3]) | Activity (Mus musculus [4]) | Activity (Mus musculus [5]) | Activity (Mus musculus [6]) | Activity (Mus musculus [7]) | Activity (Mus musculus [8]) | Activity (Mus musculus [9]) | Activity (Mus musculus [10]) | Activity (Mus musculus [11]) | Activity (Mus musculus [12]) | Activity (Mus musculus [13])
1 | CC(O)c1cc2c(o1)C(=O)c1ccccc1C2=O (stereo unspecified) | Active | Toxic | Active | Active | Toxic | Active | – | – | – | – | – | – | –
2 | CC1(C)C=CC2=C(O1)C(=O)c1ccccc1C2=O | – | – | inactive | – | – | inactive | inactive | inactive | – | – | – | – | –
3 | CN(C)CCCN1c2ccccc2CCc2ccccc21 | – | – | – | – | – | – | – | – | Active | – | – | – | –
4 | CC[C@H](CC[C@@H](C)[C@H]1CC[C@H]2[C@@H]3CC=C4C[C@@H](O)CC[C@]4(C)[C@H]3CC[C@]12C)C(C)C [BETA-SITOSTEROL] | inactive | – | inactive | – | – | Active | inactive | Active | – | Toxic | Toxic | inactive | –
5 | CC(C)=CCC1=C(O)C(=O)c2ccccc2C1=O [LAPACHOL] | Active | Toxic | inactive | – | Toxic | Active | inactive | Active | – | – | – | – | –
6 | CC(=O)c1cc2c(o1)C(=O)c1ccccc1C2=O [NAPABUCASIN] | Active | – | – | Active | – | – | – | – | – | – | Toxic | Active | Active
